Experimental data taken from PubChem BioAssay (NCI).
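In this assay, cells in 96-well plates receive the compound at five concentrations for 48 hours. Endpoints are linearly interpolated between the surrounding concentrations. GI50 = concentration required for 50% inhibition of growth. TGI is the concentration that stops growth completely.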

Key:
Experiment in all cases: NCI-60 cell line screen, 48 h
[1] = test system: SN12C renal
[2] = test system: HCT-116 colon
[3] = test system: UACC-62 melanoma
[4] = test system: SNB-19 CNS
[5] = test system: M14 melanoma
[6] = test system: SK-MEL-5 melanoma
[7] = test system: KM12 colon
[8] = test system: DU-145 prostate
[9] = test system: HCC-2998 colon
[10] = test system: SK-MEL-28 melanoma

| Compound | TGI [1] | TGI [2] | TGI [3] | TGI [4] | TGI [5] | TGI [6] | TGI [7] | GI50 [1] | GI50 [8] | TGI [8] | GI50 [3] | GI50 [5] | GI50 [6] | GI50 [9] | TGI [9] | GI50 [7] | TGI [10] | GI50 [10] | GI50 [4] | GI50 [2] |
| --- | --- | --- | --- | --- | --- | --- | --- | --- | --- | --- | --- | --- | --- | --- | --- | --- | --- | --- | --- | --- |
| O=C1/C=C(/c2ccc(O)cc2)[C@H](O)Cc2ccc(OC3OC(CO)C(O)C(O)C3O)cc2O1 (stereo not given in full) (tested in a mixture with another compound) | > 100 µM | > 100 µM | > 100 µM | > 100 µM | > 100 µM | > 100 µM | > 100 µM |  |  |  |  |  |  |  |  |  |  |  |  |  |
| COc1ccc(OC)c(-c2cc(-c3ccc(Cl)cc3)nn2-c2ccc(S(N)(=O)=O)cc2)c1 | 28.2 µM |  | 12.1 µM |  | 19.7 µM | 35.4 µM | 21.2 µM | 14.5 µM | 12.1 µM | 25.9 µM | 2.98 µM | 7.73 µM | 14.5 µM | 7.51 µM | 21.6 µM | 5.16 µM |  |  |  |  |
| COC(=O)c1nc(N)[nH]c(=O)c1-c1ccc(Cl)cc1 | > 100 µM | > 100 µM | > 100 µM | > 100 µM | > 100 µM | > 100 µM | > 100 µM |  |  |  |  |  |  |  | > 100 µM |  | > 100 µM |  |  |  |
| CCCCCCCCOCC(O)COC (stereo not given) | > 100 µM | > 100 µM | > 100 µM | > 100 µM | > 100 µM | > 100 µM |  |  |  |  |  |  |  |  | > 100 µM |  | > 100 µM |  |  |  |
| O=C(c1ccc(Cl)cc1)N(C(=S)N1CCN(c2ccccc2)CC1)C1CCCCC1 | > 100 µM | > 100 µM | > 100 µM | > 100 µM | > 100 µM | > 100 µM | > 100 µM |  |  |  |  |  |  |  |  |  | > 100 µM |  |  |  |
| COc1ccc(/C=N\N2C(=O)Cc3ccccc32)cc1 |  | > 100 µM | > 100 µM | > 100 µM | > 100 µM | > 100 µM | > 100 µM |  |  |  |  |  |  |  | > 100 µM |  | > 100 µM |  |  |  |
| COc1cc(C=C2C(=O)OC(C)(C)OC2=O)cc(OC)c1OC | > 100 µM | > 100 µM | > 100 µM | > 100 µM | > 100 µM | > 100 µM | > 100 µM |  |  |  |  |  |  |  | > 100 µM |  | > 100 µM |  |  |  |
| COC(=O)c1ccc2n[se]nc2c1 | > 100 µM | > 100 µM | > 100 µM | > 100 µM | > 100 µM | > 100 µM | > 100 µM |  |  |  |  |  |  |  | > 100 µM |  | > 100 µM |  |  |  |
| CCC(C)CNC1=C(NC(C)=O)C(=O)c2ccccc2C1=O (stereo not given) | > 100 µM | > 100 µM | > 100 µM | > 100 µM | > 100 µM | > 100 µM | > 100 µM |  |  |  |  |  |  |  | > 100 µM |  | > 100 µM |  |  |  |
| Cc1cc(C)c(-c2noc(-c3ccc(Cl)cc3)c2C2=NCCN2)c(C)c1 | 45.5 µM | 64.5 µM | 33.8 µM | > 100 µM | 27 µM | 24 µM | 54 µM |  |  |  |  |  |  |  | 36 µM |  | 36.9 µM |  |  |  |
| COc1ccc2c(c1)C(CCN)C(=O)N2 (stereo not given) |  | > 100 µM | > 100 µM |  | > 100 µM | > 100 µM | > 100 µM |  |  |  |  |  |  |  | > 100 µM |  | > 100 µM |  |  |  |
| O=C(/C=C(\O)C(=O)O)/C=C(\O)c1ccc(Cl)cc1 | > 100 µM | > 100 µM | > 100 µM | > 100 µM | > 100 µM | > 100 µM | > 100 µM |  |  |  |  |  |  |  | > 100 µM |  | > 100 µM |  |  |  |
| Cn1c(=O)c(C2c3ccccc3Oc3c2c(=O)n(C)c2ccccc32)c(O)c2ccccc21 (stereo not given) | > 100 µM | > 100 µM | > 100 µM | > 100 µM | > 100 µM | > 100 µM | > 100 µM |  |  |  |  |  |  |  | > 100 µM |  | > 100 µM |  |  |  |
| CCOc1cccc2cccnc12 | > 100 µM | > 100 µM | > 100 µM | > 100 µM | > 100 µM | > 100 µM | > 100 µM |  |  |  |  |  |  |  | > 100 µM |  | > 100 µM |  |  |  |
| COc1ccc(-c2ccc(/C=N/n3cnn(CN4CCN(C)CC4)c3=S)o2)c([N+](=O)[O-])c1 |  |  | 40 µM | > 100 µM | 60.7 µM | 62.7 µM | > 100 µM |  | 38.1 µM | > 100 µM | 16.1 µM | 14.2 µM | 23.9 µM |  |  | 33.3 µM | > 100 µM | 44.5 µM | 56.4 µM |  |
| COc1ccccc1NC(=O)CC(=O)NNCC(=O)Nc1nc(-c2ccccc2)cs1 | > 100 µM | > 100 µM | > 100 µM | > 100 µM | > 100 µM | > 100 µM | > 100 µM |  |  |  |  |  |  |  |  |  | > 100 µM |  |  |  |
| CCOC(=O)C(=C=Cc1cccs1)C(=O)c1ccccc1 | 29.3 µM | 27.7 µM | 30.3 µM |  | 28.2 µM | 10.5 µM | 24.7 µM |  |  |  |  |  |  |  | 31.2 µM |  | 28 µM |  |  |  |
| O=C(Nc1ccc(Cl)cc1Cl)c1c/c(=N\O)c2ccc(O)cc2o1 | > 100 µM | > 100 µM | > 100 µM | > 100 µM | > 100 µM | > 100 µM | > 100 µM |  |  |  |  |  |  |  |  |  | > 100 µM |  |  |  |
| O=C(O)C(=O)/C=C\c1ccc(Cl)cc1 | > 100 µM | > 100 µM | > 100 µM | > 100 µM | > 100 µM | > 100 µM | > 100 µM |  |  |  |  |  |  |  | > 100 µM |  | > 100 µM |  |  |  |
| COC(=O)C1=C(SC)SC2(C(=O)OC)C3C=C(C)C4C(N13)C42C(=O)OC (stereo not given) | > 100 µM | > 100 µM | > 100 µM | > 100 µM | > 100 µM | > 100 µM |  |  |  |  |  |  |  |  | > 100 µM |  | > 100 µM |  |  |  |
| CC(=O)NC1=NC(=O)/C(=C/c2ccc(Cl)cc2Cl)N1C |  | > 100 µM | 88.2 µM | > 100 µM | > 100 µM | > 100 µM | > 100 µM |  |  | > 100 µM |  |  |  |  | > 100 µM |  |  |  |  |  |
| CN1CCN(c2nc(NCCNc3ccnc4cc(Cl)ccc34)c3ccccc3n2)CC1 | 5.6 µM | 7.62 µM | 3.39 µM | 15.2 µM | 3.59 µM | 3.12 µM | 12.1 µM | 2.03 µM |  |  | 1.82 µM | 1.83 µM | 1.72 µM | 3.11 µM | 10.4 µM | 2.43 µM | 3.39 µM | 1.83 µM | 3.34 µM | 0.448 µM |
